PubChem BioAssay AID1918947 (Molecular Pharmacology Branch, DTP, NCI, 2023)
pIC50: −log10 of the molar value. Where “and” joins values, the source holds several entries; their conditions need not be identical. Equal values may be shown once.

Test system: A498 complex spheroid viability
Assay: Anticancer human tumor A498 cell line growth inhibition;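 note: spheroids exposed to agents for seven days before readout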;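 for viability, T/C: 100% = DMSO vehicle-treated spheroids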
Details: for viability, T/C: stronger effect = lower value
Summary of the method: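 Drug combinations with the LSD1 inhibitor iadademstat tested on tumor cells co-cultured as spheroids with endothelial cells and mesenchymal stem cells. Concentrations descended in half-log increments from clinical Cmax or 10 microM.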

[1] = curve of first compound, second compound 0.1 µM
[2] = curve of first compound, second compound 0.316 µM
[3] = curve of first compound, second compound 1 µM
[4] = curve of first compound, second compound 3.16 µM
[5] = curve of first compound, second compound 10 µM
[6] = second compound 0.1 µM, first compound 0.000316 µM
[7] = second compound 0.1 µM, first compound 0.001 µM
[8] = second compound 0.1 µM, first compound 0.00316 µM
[9] = second compound 0.1 µM, first compound 0.01 µM
[10] = second compound 0.1 µM, first compound 0.0316 µM
[11] = second compound 0.1 µM, first compound 0.1 µM
[12] = second compound 0.316 µM, first compound 0.000316 µM
[13] = second compound 0.316 µM, first compound 0.001 µM
[14] = second compound 0.316 µM, first compound 0.00316 µM
[15] = second compound 0.316 µM, first compound 0.01 µM
[16] = second compound 0.316 µM, first compound 0.0316 µM
[17] = second compound 0.316 µM, first compound 0.1 µM
[18] = second compound 1 µM, first compound 0.000316 µM
[19] = second compound 1 µM, first compound 0.001 µM
[20] = second compound 1 µM, first compound 0.00316 µM
[21] = second compound 1 µM, first compound 0.01 µM
[22] = second compound 1 µM, first compound 0.0316 µM
[23] = second compound 1 µM, first compound 0.1 µM
[24] = second compound 3.16 µM, first compound 0.000316 µM
[25] = second compound 3.16 µM, first compound 0.001 µM
[26] = second compound 3.16 µM, first compound 0.00316 µM
[27] = second compound 3.16 µM, first compound 0.01 µM
[28] = second compound 3.16 µM, first compound 0.0316 µM
[29] = second compound 3.16 µM, first compound 0.1 µM
[30] = second compound 10 µM, first compound 0.000316 µM
[31] = second compound 10 µM, first compound 0.001 µM
[32] = second compound 10 µM, first compound 0.00316 µM
[33] = second compound 10 µM, first compound 0.01 µM
[34] = second compound 10 µM, first compound 0.0316 µM
[35] = second compound 10 µM, first compound 0.1 µM

Compound: CCc1c2c(nc3ccc(O)cc13)-c1cc3c(c(=O)n1C2)COC(=O)[C@]3(O)CC
- viability, T/C (compound 0.000949 µM): 42.1% and 37.3%
- viability, T/C (compound 0.003 µM): 33% and 33.4%
- viability, T/C (compound 0.00949 µM): 24.4% and 22.1%
- viability, T/C (compound 0.03 µM): 1.45% and 0.7%
- viability, T/C (compound 0.0949 µM): 0.15%
- viability, T/C (compound 0.3 µM): 0.18% and 0.21%
- pIC50 (curve of compound): > 9.02

Compound: CC[C@@]1(O)C(=O)OCc2c1cc1n(c2=O)Cc2cc3c(CN(C)C)c(O)ccc3nc2-1 + NC1CC1c1ccc(-c2cccc(O)c2)cc1
- pIC50 [1]: 7.37
- pIC50 [2]: 7.36
- pIC50 [3]: 7.42
- pIC50 [4]: 7.52
- pIC50 [5]: 7.58
- viability, T/C [6]: 105%
- viability, T/C [7]: 106%
- viability, T/C [8]: 79.1%
- viability, T/C [9]: 76.4%
- viability, T/C [10]: 60.6%
- viability, T/C [11]: 29.8%
- viability, T/C [12]: 110%
- viability, T/C [13]: 103%
- viability, T/C [14]: 82.2%
- viability, T/C [15]: 73.1%
- viability, T/C [16]: 59.6%
- viability, T/C [17]: 33.8%
- viability, T/C [18]: 102%
- viability, T/C [19]: 103%
- viability, T/C [20]: 86.5%
- viability, T/C [21]: 69.4%
- viability, T/C [22]: 55.8%
- viability, T/C [23]: 32.9%
- viability, T/C [24]: 104%
- viability, T/C [25]: 95.4%
- viability, T/C [26]: 74.6%
- viability, T/C [27]: 60.5%
- viability, T/C [28]: 58.8%
- viability, T/C [29]: 29.5%
- viability, T/C [30]: 103%
- viability, T/C [31]: 92.4%
- viability, T/C [32]: 75.8%
- viability, T/C [33]: 65.5%
- viability, T/C [34]: 49%
- viability, T/C [35]: 27.7%

Compound: Cn1ncnc1C1c2n[nH]c(=O)c3cc(F)cc(c23)NC1c1ccc(F)cc1 (configuration not stated) + NC1CC1c1ccc(-c2cccc(O)c2)cc1
- pIC50 [1]: < 7.00
- pIC50 [2]: < 7.00
- pIC50 [3]: < 7.00
- pIC50 [4]: < 7.00
- pIC50 [5]: < 7.00
- viability, T/C [6]: 94.6%
- viability, T/C [7]: 97.7%
- viability, T/C [8]: 104%
- viability, T/C [9]: 94.9%
- viability, T/C [10]: 96.2%
- viability, T/C [11]: 94.2%
- viability, T/C [12]: 103%
- viability, T/C [13]: 111%
- viability, T/C [14]: 104%
- viability, T/C [15]: 92.1%
- viability, T/C [16]: 100%
- viability, T/C [17]: 93.3%
- viability, T/C [18]: 89.3%
- viability, T/C [19]: 93.3%
- viability, T/C [20]: 96.4%
- viability, T/C [21]: 84.6%
- viability, T/C [22]: 89.1%
- viability, T/C [23]: 87.8%
- viability, T/C [24]: 87%
- viability, T/C [25]: 89.8%
- viability, T/C [26]: 90.2%
- viability, T/C [27]: 89%
- viability, T/C [28]: 91.9%
- viability, T/C [29]: 77.8%
- viability, T/C [30]: 80.8%
- viability, T/C [31]: 86.6%
- viability, T/C [32]: 91.3%
- viability, T/C [33]: 87.3%
- viability, T/C [34]: 78.6%
- viability, T/C [35]: 78.4%

Compound: NS(=O)(=O)OCC1CC(n2ccc3c(NC4CCc5ccccc54)ncnc32)CC1O (configuration not stated) + NC1CCC(NC2CC2c2ccccc2)CC1
- pIC50 [1]: 7.68
- pIC50 [2]: 7.69
- pIC50 [3]: > 8.02
- pIC50 [4]: > 8.02
- pIC50 [5]: > 8.02
- viability, T/C (second compound 0.1 µM, first compound 0.00949 µM): 61.1%
- viability, T/C (second compound 0.1 µM, first compound 0.03 µM): 43.3%
- viability, T/C (second compound 0.1 µM, first compound 0.0949 µM): 35%
- viability, T/C (second compound 0.1 µM, first compound 0.3 µM): 24%
- viability, T/C (second compound 0.1 µM, first compound 0.949 µM): 19.4%
- viability, T/C (second compound 0.1 µM, first compound 3 µM): 15.3%
- viability, T/C (second compound 0.316 µM, first compound 0.00949 µM): 64.5%
- viability, T/C (second compound 0.316 µM, first compound 0.03 µM): 41.2%
- viability, T/C (second compound 0.316 µM, first compound 0.0949 µM): 30.8%
- viability, T/C (second compound 0.316 µM, first compound 0.3 µM): 22.7%
- viability, T/C (second compound 0.316 µM, first compound 0.949 µM): 17.8%
- viability, T/C (second compound 0.316 µM, first compound 3 µM): 15.6%
- viability, T/C (second compound 1 µM, first compound 0.00949 µM): 47.8%
- viability, T/C (second compound 1 µM, first compound 0.03 µM): 29.6%
- viability, T/C (second compound 1 µM, first compound 0.0949 µM): 21.4%
- viability, T/C (second compound 1 µM, first compound 0.3 µM): 19.5%
- viability, T/C (second compound 1 µM, first compound 0.949 µM): 14.3%
- viability, T/C (second compound 1 µM, first compound 3 µM): 11.8%
- viability, T/C (second compound 3.16 µM, first compound 0.00949 µM): 31.8%
- viability, T/C (second compound 3.16 µM, first compound 0.03 µM): 15.6%
- viability, T/C (second compound 3.16 µM, first compound 0.0949 µM): 16.6%
- viability, T/C (second compound 3.16 µM, first compound 0.3 µM): 11.5%
- viability, T/C (second compound 3.16 µM, first compound 0.949 µM): 8.41%
- viability, T/C (second compound 3.16 µM, first compound 3 µM): 6.43%
- viability, T/C (second compound 10 µM, first compound 0.00949 µM): 11.8%
- viability, T/C (second compound 10 µM, first compound 0.03 µM): 8.27%
- viability, T/C (second compound 10 µM, first compound 0.0949 µM): 6.84%
- viability, T/C (second compound 10 µM, first compound 0.3 µM): 5.05%
- viability, T/C (second compound 10 µM, first compound 0.949 µM): 4.15%
- viability, T/C (second compound 10 µM, first compound 3 µM): 6.13%
